Data on 1 molecule can be found in patent US12458659B2, “Methods for treating macrophage-mediated diseases, and methods of identifying agents useful therefore” (The Regents of the University of California, priority 2019, dated 2025).

Molecules are shown by their SMILES.

What all share (assay type): cell-based, mouse
Test [1] deals with NLRP3 inflammasome. As to the kind of experiment: IL-1β release by LPS-primed macrophages stimulated with NLRP3 activators (ELISA). As to conditions: LPS-primed. As to the method: Macrophage culture and stimulation—Femurs and tibias from C57BL/6 mice, Ampkα1^−/− mice, and Il10rb^−/− mice at 6-10 weeks of age were used to generate bone-marrow-derived macrophages (BMDM) as described (Hornung et al., 2008). Macrophages were cultured in DMEM supplemented with 10% FBS, 20% L929-cell conditioned medium, and 100 U/ml penicillin-streptomycin for 7-10 days. Bone marrow was isolated from MWS Nlrp3^A350VneoRCreT, FCAS Nlrp3^L351PneoCreT and NOMID Nlrp3^D301NneoCreT conditional knock-in mice (Bonar et al., 2012; Brydges et al., 2009), and were allowed to differentiate over 7 days with addition of fresh mouse recombinant GMCSF every three days. (Z)-4-hydroxitamoxifen at 0.4 μg/ml was added to cells 24 hr prior to treatment to induce the mutant Nlrp3 allele. Immortalized mouse BMDM were grown in DMEM supplemented with 10% FBS and 100 U/ml penicillin-streptomycin. All cells were grown at 37° C. with 5% CO2. NLRP3 inflammasome activation was induced priming for 4 hr with ultrapure LPS (100 ng/ml) followed by treatment with the NLRP3 activators ATP (4 mM) and nigericin (10 μM) for 45 min, unless otherwise indicated, and monosodium urate (MSU) crystals (400 μg/ml) and 1,2-dioleoyl-3-trimethylammoniumpropane (DOTAP) liposomes (50 μg/ml) for 3 hr. In Nlrp3 mutant macrophages IL-1b production was induced by LPS treatment for 16 hr at 37° C., whereas FCAS macrophages were incubated at 32° C. without LPS addition. AIM2 inflammasome activation was induced by 4 hr LPS priming and transfection with lipofectamine 3000 and the AIM2 activator poly(dA:dT) (1 μg/ml) for 8 hr. For choline deprivation experiments, the cells were cultured in CMRL1066 medium with or without choline for 2-3 hr before priming with LPS and kept during the experiment.
(§1) Protein Immunoblotting and ELISA—Mitochondria were isolated using Mitochondria Isolation kit. Whole cell lysates were prepared in NP40 buffer containing a protease inhibitor cocktail and a phosphatase inhibitor cocktail, and supernatants were analyzed by SDS-PAGE. […]

For test [2], the system named is BMDM. As to the kind of experiment: Mitochondrial membrane potential (TMRM). As to conditions: RSM932A-pretreated, LPS-primed; at least as effectively as CCCP. How it is done: (§2) Mitochondrial Function—Mitochondrial membrane potential (Ψm) was measured using TMRM (#T668, Life Technologies) according to manufacturer's instructions. Briefly, RSM932A-pretreated BMDM and shCtrl and shChoKα iBMDM were primed with LPS for 4 hr. Cells were stained with 200 nM TMRM for 30 min at 37° C., and then treated with CCCP (5 μM) for 5 min. After washing twice, fluorescence intensity was determined per manufacturer's instructions using a FilterMax F5 multimode plate reader (Molecular Devices), Mitochondrial reactive oxygen species (mtROS) was measured using MitoSOX (Invitrogen) as described (Zhong et al., 2016c). […] After washing with PBS, fluorescence intensity was determined at 510/580 nm using a FilterMax F5 plate reader. NAD^+/NADH ratio was measured using NAD^+/NADH Cell-Based Assay kit according to manufacturer's instructions (Cayman Chemical Company). […] Absorbance was measured at 450 nm using FilterMax F5 plate reader. Complex V ATP synthase activity was measured in mitochondria isolated from BMDM treated with LPS for 24 hr using Complex V Activity Assay kit (Cayman Chemical Company) according to manufacturer's instructions. Absorbance was measured at 340 nm at 30-second intervals for 30 min using a FilterMax F5 plate reader. Cellular ATP was measured after 24 hr LPS stimulation using CellTiter-Glo Luminescent Assay (Promega) as described (Ip et al., 2017). […]

For test [3], the system named is BMDM. As to the kind of experiment: Mitochondrial reactive oxygen species (MitoSOX). As to conditions: BMDM pretreated with RSM932A, LPS+DOTAP or LPS+nigericin. As to the method: as §2
The test system of test [4] is caspase-1. As to the kind of experiment: Caspase-1 activation in LPS-primed, ATP-treated BMDM (immunoblot). As to conditions: ATP-treated BMDM pretreated with RSM932A. As to the method: Macrophage culture and stimulation—Femurs and tibias from C57BL/6 mice, Ampkα1^−/− mice, and Il10rb^−/− mice at 6-10 weeks of age were used to generate bone-marrow-derived macrophages (BMDM) as described (Hornung et al., 2008). Macrophages were cultured in DMEM supplemented with 10% FBS, 20% L929-cell conditioned medium, and 100 U/ml penicillin-streptomycin for 7-10 days. Bone marrow was isolated from MWS Nlrp3^A350VneoRCreT, FCAS Nlrp3^L351PneoCreT and NOMID Nlrp3^D301NneoCreT conditional knock-in mice (Bonar et al., 2012; Brydges et al., 2009), and were allowed to differentiate over 7 days with addition of fresh mouse recombinant GMCSF every three days. (Z)-4-hydroxitamoxifen at 0.4 μg/ml was added to cells 24 hr prior to treatment to induce the mutant Nlrp3 allele. Immortalized mouse BMDM were grown in DMEM supplemented with 10% FBS and 100 U/ml penicillin-streptomycin. All cells were grown at 37° C. with 5% CO2. […]
as §1
For orientation: Immunoblotting shows a protein as a band on a membrane.

Test [5] has as its system BMDM. As to the kind of experiment: Cytosolic mtDNA (QPCR). As to conditions: RSM932A-pretreated BMDM, LPS-primed, ATP or nigericin. How it is done:
Cellular fractionation and measurement of cytosolic mtDNA—BMDM were primed with LPS and stimulated with an NLRP3 inflammasome activator. Cellular fractionation was performed using Mitochondrial Isolation kit (ThermoScientific) according to manufacturer's instructions. Cytosolic mtDNA was analyzed as described (Nakahira et al., 2011). Briefly, DNA was isolated from 300 μl of the cytosolic fractions using All Prep DNA/RNA kit, and mitochondrial DNA encoding cytochrome c oxidase 1 and D-Loop were measured by QPCR with an equal volume of the DNA solution. Nuclear DNA encoding 18S ribosomal RNA and Tert was used for normalization. Primer sequences were obtained from the NIH qPrimerDepot (mouseprimerdepot.nci.nih.gov) and provided by Integrated DNA Technologies, as set forth below.

Test [6] concerns NLRP3 inflammasome components. As to the kind of experiment: Immunoblot of NLRP3 inflammasome components in BMDM. As to conditions: BMDM pretreated with RSM932A. As to the method:
Protein Immunoblotting and ELISA—Mitochondria were isolated using Mitochondria Isolation kit. Whole cell lysates were prepared in NP40 buffer containing a protease inhibitor cocktail and a phosphatase inhibitor cocktail, and supernatants were analyzed by SDS-PAGE. Proteins were transferred into PVDF membranes, blocked in 5% BSA and 1×TBST for 1 hr, and incubated with indicated antibodies overnight. Secondary antibodies were added for 1 hr and detection was done using CLARITY™ Western ECL Substrate (Biorad). Paired antibodies (capture and detection) and standard recombinant mouse IL-1β (R&D Systems), and TNF and IL-6 (eBioscience) were used to determine cytokine concentrations according to manufacturer's instructions.

`C/[N+](c1ccc(Cl)cc1)=c1\ccn(Cc2ccc(-c3ccc(Cn4cc/c(=[N+](/C)c5ccc(Cl)cc5)c5ccccc54)cc3)cc2)c2ccccc12` [RSM932A]: the IL-1β production result in test [1] (BMDM pretreated overnight with 5 μM RSM932A, ATP or MSU-stimulated, compared with ChoKα knockdown (reduced)) is recorded as “produced a similar effect”. Besides, in test [1] (MSU-stimulated BMDM pretreated overnight with 5 μM RSM932A, p<0.005), the “reduction of MSU-induced IL-1β release” value was 71%. Also, the “mitochondrial membrane potential (Ψm)” value in test [2] is recorded as “reduced”. Further, the “production of mitochondrial reactive oxygen species (mtROS)” value in test [3] is reported as “attenuated”. Further, the caspase-1 activation result in test [4] is reported as “inhibited”. The “amount of cytosolic mtDNA” value in test [5] is listed as “reduced”. For the same molecule, the “expression of NLRP3 inflammasome components (caspase-1, NLRP3, ASC, pro-IL-1β induced by LPS)” value in test [6] is recorded as “did not alter”.
